In patent US4302448A, “Secretin preparations with intensified and protracted action, process for their manufacture, their use as well as dihydroxybenzoyl-L-tyrosine” (Hoechst Aktiengesellschaft, priority 1979, dated 1981):

Key:
Assay type in all cases: in vivo
[1] = tested on: Pancreatic juice secretion of the rat; assay: Pancreatic juice secretion of the rat after subcutaneous administration of secretin with depot bodies; details: rat, subcutaneous, 5 CU/kg secretin + 10 mg depot body/animal; for Δ% vs. control (percentage by which the pancreatic secretion is above the basal secretion after 5 hours): control=100%, measure of depot effect; for Rel. Intensity of effect over 5 hours (total pancreatic juice secretion over 5 hours as compared with control): control (0.9% of NaCl)=1
Procedure: Secretin preparations for subcutaneous application which contained the depot bodies specified in the following Table were tested in animal experiments. In the experimental procedure chosen, 5 to 8 male rats weighing 300 to 500 g each are administered subcutaneously 5 CU/kg of secretin (CU means clinical unit) and 10 mg of the depot body to be tested each in aqueous solution or suspension.
The animals remain without food for 18 hours prior to the test, but they are given water ad libitum. Under urethane anaesthesia (5 ml/kg i.m. of 25% urethane) the abdomen is opened by median section after tracheotomy, and the pylorus is ligated. The ductus choledochus is tied off in its proximal part near the porta hepatis, and the bile is led into the duodenum via a polyethylene tube of a diameter of […]. A cannula or catheter is inserted into the distal part of the bile duct, into which the numerous pancreatic ducts open, immediately before it opens into the duodenum, and the volume of the secretion running off is measured in 60 minute intervals. Following a preliminary run of 60 minutes the preparations are administered.
L means the compound known from literature and characterized by the melting point, optionally UV, IR or NMR. A to C relate to the preparation according to Example 1, process A to C. These compounds were characterized by ultimate analysis. The third column indicates the percentage by which the pancreatic secretion is above the basal secretion after 5 hours (calculated on the control=100%). This value is a measure for the depot effect of the depot body tested. Column 4 indicates the intensification of the secretin effect, with the total pancreatic juice secretion having been given over 5 hours as compared with the control (0.9% of NaCl)=1.

[2] = tested on: pancreatic juice; assay: Pancreatic juice production in rats after rectal administration of secretin suppository with or without depot body
Procedure: The intensified effect of secretin in the form of rectally administrable preparations due to the depot bodies used according to the invention becomes evident from the drawing. In a test carried out on 8 rats each weighing 0.5 kg, 100 μg of secretin in a suppository of a weight of 73 mg cause the production of 92 μl of pancreatic juice (curve 1). With the addition of 25 mg of 3,5-dihydroxybenzoyl-L-tyrosine the volume of pancreatic juice rose to 1778 μl (curve 2). This corresponds to an increase of the effect to about 20 times its original value. […] In the present case the secretin dose has been chosen very high in order to obtain a measurable volume also without additive.
With a non-maximum stimulation in the normal dose range (about half the dose), the increase of the effect is about 50-fold.

[3] = tested on: pancreatic juice secretion; assay: Biological effect of rectally administered secretin measured via pancreatic juice secretion, compared with subcutaneous injection; details: secretin in suppositories or rectal capsules without depot body
Procedure: Many medicaments may be incorporated in suppositories and administered rectally. They are sufficiently well absorbed in this form. […] For example, if secretin is administered by this route, the biological effect which is measured via pancreatic juice secretion is only about 1% of the effect obtained with subcutaneous injection.

[4] = rats, rectal, 100 μg secretin + 25 mg depot body

Compound	Δ% vs. control (percentage by which the pancreatic secretion is above the basal secretion after 5 hours) [1] [%]	Rel. Intensity of effect over 5 hours (total pancreatic juice secretion over 5 hours as compared with control) [1]	also measured
O=C(N[C@@H](Cc1ccc(O)cc1)C(=O)O)c1cc(O)cc(O)c1 [3,5-Dihydroxybenzoyl-L-tyrosine]	76	9.2	volume of pancreatic juice ([2]; 8 rats of 0.5 kg, rectal, 100 μg secretin suppository with addition of 25 mg depot body (curve 2)): 1778 µL; increase in efficacy, rectal versus subcutaneous application (in words) ([2]; comparison of routes): greater increase in efficacy when applied rectally than with subcutaneous application; increase of the effect relative to original value (secretin suppository without additive) [2, 4]: about 20 times; protracted action (in words) [2, 4]: a protracted action can also be observed; increase of the effect ([2]; rectal, non-maximum stimulation in the normal dose range (about half the dose)): about 50 fold
O=C(NCCN(CCN(CCNC(=O)c1cc(O)cc(O)c1)C(=O)c1cc(O)cc(O)c1)C(=O)c1cc(O)cc(O)c1)c1cc(O)cc(O)c1 [Tetra-(3,5-dihydroxybenzoyl)-triethylene-tetramine]	101	9.7	
O=C(N[C@@H](Cc1ccc(O)cc1)C(=O)NCCN(CCN(CCNC(=O)[C@H](Cc1ccc(O)cc1)NC(=O)c1cc(O)cc(O)c1)C(=O)[C@H](Cc1ccc(O)cc1)NC(=O)c1cc(O)cc(O)c1)C(=O)[C@H](Cc1ccc(O)cc1)NC(=O)c1cc(O)cc(O)c1)c1cc(O)cc(O)c1 [Tetra-(3,5-dihydroxybenzoyl-L-tyrosyl)-triethylene-tetramine]	98	9.5	
O=C(NCCN(CCN(CCNC(=O)c1cccc(O)c1)C(=O)c1cccc(O)c1)C(=O)c1cccc(O)c1)c1cccc(O)c1 [Tetra-(3-hydroxybenzoyl-)triethylene-tetramine]	95	9.1	
O=C(NCCN(CCNC(=O)c1cc(O)cc(O)c1)C(=O)c1cc(O)cc(O)c1)c1cc(O)cc(O)c1 [Tris-(3,5-dihydroxybenzoyl-diethylene-triamine]	79	8.6	
Bis-(2,4-dihydroxybenzoyl)-1,4-diaminobutane	83	6.7	
Bis-(2,4-dihydroxybenzoyl-L-tyrosine)-diaminoethane	82	6.0	
Bis-(2-carboxybenzoyl-L-tyrosine)-diaminoethane	48	6.3	
Bis-(2-hydroxybenzoyl)-diaminoethane	72	5.9	
Bis-(3,5-dihydroxybenzoyl)-1,4-diaminobutane	85	7.4	
Bis-(3,5-dihydroxybenzoyl)-diaminoethane	79	6.1	
Bis-(3,5-dihydroxybenzoyl-L-tyrosine)-diaminoethane	58	7.0	
Bis-(3-benzoylpropionyl-L-tyrosine)-diaminoethane	60	3.7	
Bis-(benzyloxycarbonyl-L-tyrosine)-diaminoethane	44	5.5	
Bis-phloretin phosphate	56	2.5	
Phloretin-3,5-dimethylphenyl phosphate	68	3.7	
Tris-(2,8-dihydroxy-3-naphthoyl)-diethylene-triamine	94	9.4	
Tris-(2-hydroxybenzoyl)-diethylene-triamine	62	8.1	
Tris-(3-hydroxybenzoyl)-diethylene-triamine	71	8.0	
Tris-(4-hydroxybenzoyl)-diethylene-triamine	68	7.8	
secretin [reference compound]			production of pancreatic juice ([2]; 8 rats of 0.5 kg, rectal, 100 μg secretin in 73 mg suppository, no additive (curve 1)): 92 µL; biological effect of rectal administration relative to effect obtained with subcutaneous injection [3]: about 1%
